Measurements: PubChem BioAssay AID1845195 (Molecular Pharmacology Branch, DTP, NCI, 2023)
Several values for one entry are separate records, joined by “and”; a condition that tells them apart may be missing. Identical values can stand only once.

Test system: 156681-154-R-J1 tumor spheroid viability
Test: Anticancer human tumor 156681-154-R-J1 patient-derived melanoma cell line growth inhibition
Details: spheroids with HUVEC and MSC; for viability, T/C: stronger effect = lower value
Summary of the method: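 Complex spheroids of malignant cells with endothelial cells and mesenchymal stem cells; agents alone or combined, from near clinical Cmax (or 10 microM if unknown) down in half-log steps, 0.25% DMSO final.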

[1] = curve of first compound, second compound 0.003 µM
[2] = curve of first compound, second compound 0.00949 µM
[3] = curve of first compound, second compound 0.03 µM
[4] = curve of first compound, second compound 0.0949 µM
[5] = curve of first compound, second compound 0.3 µM
[6] = second compound 0.003 µM, first compound 0.0316 µM
[7] = second compound 0.003 µM, first compound 0.1 µM
[8] = second compound 0.003 µM, first compound 0.316 µM
[9] = second compound 0.003 µM, first compound 1 µM
[10] = second compound 0.003 µM, first compound 3.16 µM
[11] = second compound 0.003 µM, first compound 10 µM
[12] = second compound 0.00949 µM, first compound 0.0316 µM
[13] = second compound 0.00949 µM, first compound 0.1 µM
[14] = second compound 0.00949 µM, first compound 0.316 µM
[15] = second compound 0.00949 µM, first compound 1 µM
[16] = second compound 0.00949 µM, first compound 3.16 µM
[17] = second compound 0.00949 µM, first compound 10 µM
[18] = second compound 0.03 µM, first compound 0.0316 µM
[19] = second compound 0.03 µM, first compound 0.1 µM
[20] = second compound 0.03 µM, first compound 0.316 µM
[21] = second compound 0.03 µM, first compound 1 µM
[22] = second compound 0.03 µM, first compound 3.16 µM
[23] = second compound 0.03 µM, first compound 10 µM
[24] = second compound 0.0949 µM, first compound 0.0316 µM
[25] = second compound 0.0949 µM, first compound 0.1 µM
[26] = second compound 0.0949 µM, first compound 0.316 µM
[27] = second compound 0.0949 µM, first compound 1 µM
[28] = second compound 0.0949 µM, first compound 3.16 µM
[29] = second compound 0.0949 µM, first compound 10 µM
[30] = second compound 0.3 µM, first compound 0.0316 µM
[31] = second compound 0.3 µM, first compound 0.1 µM
[32] = second compound 0.3 µM, first compound 0.316 µM
[33] = second compound 0.3 µM, first compound 1 µM
[34] = second compound 0.3 µM, first compound 3.16 µM
[35] = second compound 0.3 µM, first compound 10 µM
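Note: spheroids exposed to compounds for 7 days before readout.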
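Throughout, for viability, T/C: percent of vehicle control viability where 100% = DMSO-treated spheroids.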

[2H]c1nc(C)nc([2H])c1-c1cc(NC[C@@H](C)c2cccc3c(C(=O)NC)ccnc23)ncn1 + CC[C@@]1(O)C(=O)OCc2c1cc1n(c2=O)Cc2cc3c(CN(C)C)c(O)ccc3nc2-1
IC50 [1]: > 10000 nM
IC50 [2]: > 10000 nM
IC50 [3]: > 10000 nM
IC50 [4]: < 31.6 nM
IC50 [5]: < 31.6 nM
viability, T/C [6]: 100%
viability, T/C [7]: 132%
viability, T/C [8]: 112%
viability, T/C [9]: 92.2%
viability, T/C [10]: 92.3%
viability, T/C [11]: 78%
viability, T/C [12]: 97.6%
viability, T/C [13]: 81.4%
viability, T/C [14]: 103%
viability, T/C [15]: 95.8%
viability, T/C [16]: 97.2%
viability, T/C [17]: 78.2%
viability, T/C [18]: 69.3%
viability, T/C [19]: 72.3%
viability, T/C [20]: 66.6%
viability, T/C [21]: 65.6%
viability, T/C [22]: 64.7%
viability, T/C [23]: 76%
viability, T/C [24]: 28.3%
viability, T/C [25]: 26.2%
viability, T/C [26]: 27.4%
viability, T/C [27]: 25%
viability, T/C [28]: 32.4%
viability, T/C [29]: 29.9%
viability, T/C [30]: 37.1%
viability, T/C [31]: 32.6%
viability, T/C [32]: 31.5%
viability, T/C [33]: 40.6%
viability, T/C [34]: 33.2%
viability, T/C [35]: 36.4%

CNCc1ccc(-c2cc(-c3nc(-c4ccc(S(=O)(=O)C(C)C)cc4)cnc3N)on2)cc1 + Cn1nnc2c(C(N)=O)ncn2c1=O
IC50 (curve of first compound, second compound 1 µM): 1230 nM
IC50 (curve of first compound, second compound 3.16 µM): 915 nM
IC50 (curve of first compound, second compound 10 µM): 717 nM
IC50 (curve of first compound, second compound 31.6 µM): 494 nM
IC50 (curve of first compound, second compound 100 µM): 81.6 nM
viability, T/C (second compound 1 µM, first compound 0.00949 µM): 107%
viability, T/C (second compound 1 µM, first compound 0.03 µM): 100%
viability, T/C (second compound 1 µM, first compound 0.0949 µM): 98.8%
viability, T/C (second compound 1 µM, first compound 0.3 µM): 75.5%
viability, T/C (second compound 1 µM, first compound 0.949 µM): 62.3%
viability, T/C (second compound 1 µM, first compound 3 µM): 19%
viability, T/C (second compound 3.16 µM, first compound 0.00949 µM): 88.2%
viability, T/C (second compound 3.16 µM, first compound 0.03 µM): 100%
viability, T/C (second compound 3.16 µM, first compound 0.0949 µM): 90%
viability, T/C (second compound 3.16 µM, first compound 0.3 µM): 72.6%
viability, T/C (second compound 3.16 µM, first compound 0.949 µM): 50.7%
viability, T/C (second compound 3.16 µM, first compound 3 µM): 16.8%
viability, T/C (second compound 10 µM, first compound 0.00949 µM): 93.6%
viability, T/C (second compound 10 µM, first compound 0.03 µM): 73.9%
viability, T/C (second compound 10 µM, first compound 0.0949 µM): 80.7%
viability, T/C (second compound 10 µM, first compound 0.3 µM): 64.8%
viability, T/C (second compound 10 µM, first compound 0.949 µM): 46%
viability, T/C (second compound 10 µM, first compound 3 µM): 11.1%
viability, T/C (second compound 31.6 µM, first compound 0.00949 µM): 63.5%
viability, T/C (second compound 31.6 µM, first compound 0.03 µM): 65.1%
viability, T/C (second compound 31.6 µM, first compound 0.0949 µM): 59.5%
viability, T/C (second compound 31.6 µM, first compound 0.3 µM): 59.8%
viability, T/C (second compound 31.6 µM, first compound 0.949 µM): 38%
viability, T/C (second compound 31.6 µM, first compound 3 µM): 5.46%
viability, T/C (second compound 100 µM, first compound 0.00949 µM): 54.2%
viability, T/C (second compound 100 µM, first compound 0.03 µM): 53%
viability, T/C (second compound 100 µM, first compound 0.0949 µM): 54.1%
viability, T/C (second compound 100 µM, first compound 0.3 µM): 34.6%
viability, T/C (second compound 100 µM, first compound 0.949 µM): 22.1%
viability, T/C (second compound 100 µM, first compound 3 µM): 1.01%

O=C(c1cc(Cc2n[nH]c(=O)c3ccccc23)ccc1F)N1CCN(C(=O)C2CC2)CC1
viability, T/C (compound 0.0949 µM): 84% and 87.4% and 95%
viability, T/C (compound 0.3 µM): 82.5% and 83.7% and 107%
viability, T/C (compound 0.949 µM): 103% and 85.3% and 77.8%
viability, T/C (compound 3 µM): 64.4% and 72.5% and 82.7%
viability, T/C (compound 9.49 µM): 62.2% and 60.3% and 65.8%
viability, T/C (compound 30 µM): 50.7% and 52.9% and 63.1%
IC50 (curve of compound): > 30000 nM

CC(C)n1c(=O)n(C)c2cnc3cc(F)c(-c4ccc(OCCCN5CCCCC5)nc4)cc3c21 + CC[C@@]1(O)C(=O)OCc2c1cc1n(c2=O)Cc2cc3c(CN(C)C)c(O)ccc3nc2-1
IC50 [1]: > 10000 nM
IC50 [2]: > 10000 nM
IC50 [3]: 55.1 nM
IC50 [4]: < 31.6 nM
IC50 [5]: < 31.6 nM
viability, T/C [6]: 83%
viability, T/C [7]: 92.7%
viability, T/C [8]: 77.3%
viability, T/C [9]: 78.8%
viability, T/C [10]: 97.9%
viability, T/C [11]: 85.5%
viability, T/C [12]: 77.2%
viability, T/C [13]: 75%
viability, T/C [14]: 74.4%
viability, T/C [15]: 76.3%
viability, T/C [16]: 80.8%
viability, T/C [17]: 78.8%
viability, T/C [18]: 57.8%
viability, T/C [19]: 44.7%
viability, T/C [20]: 30.3%
viability, T/C [21]: 29.6%
viability, T/C [22]: 44.8%
viability, T/C [23]: 31.7%
viability, T/C [24]: 11.9%
viability, T/C [25]: 10.2%
viability, T/C [26]: 10.8%
viability, T/C [27]: 13.2%
viability, T/C [28]: 11.8%
viability, T/C [29]: 13.6%
viability, T/C [30]: 10.2%
viability, T/C [31]: 9.03%
viability, T/C [32]: 9.13%
viability, T/C [33]: 9.94%
viability, T/C [34]: 9.43%
viability, T/C [35]: 15%

COc1ccc([C@@H](O)c2cc(-c3ncnc4cc(N5CCOCC5)ccc34)c(F)cc2Cl)nn1 + CC[C@@]1(O)C(=O)OCc2c1cc1n(c2=O)Cc2cc3c(CN(C)C)c(O)ccc3nc2-1
IC50 [1]: 5780 nM
IC50 [2]: 3580 nM
IC50 [3]: 616 nM
IC50 [4]: < 31.6 nM
IC50 [5]: < 31.6 nM
viability, T/C [6]: 80.6%
viability, T/C [7]: 70.4%
viability, T/C [8]: 78.3%
viability, T/C [9]: 63.9%
viability, T/C [10]: 54.4%
viability, T/C [11]: 46.6%
viability, T/C [12]: 89.9%
viability, T/C [13]: 75.9%
viability, T/C [14]: 75%
viability, T/C [15]: 62.4%
viability, T/C [16]: 47.6%
viability, T/C [17]: 43.3%
viability, T/C [18]: 71.5%
viability, T/C [19]: 57.8%
viability, T/C [20]: 53.9%
viability, T/C [21]: 49.5%
viability, T/C [22]: 41.8%
viability, T/C [23]: 35.3%
viability, T/C [24]: 24.1%
viability, T/C [25]: 30.7%
viability, T/C [26]: 30.3%
viability, T/C [27]: 34%
viability, T/C [28]: 36.3%
viability, T/C [29]: 28.4%
viability, T/C [30]: 32.9%
viability, T/C [31]: 36.8%
viability, T/C [32]: 35.6%
viability, T/C [33]: 42.1%
viability, T/C [34]: 25.9%
viability, T/C [35]: 8.42%
